Assay results published in patent publication US11034661B2, “Substituted N′-hydroxycarbamimidoyl-1,2,5-oxadiazole compounds as indoleamine 2,3-dioxygenase IDO inhibitors” (Merck Sharp & Dohme Corp., priority 2017, dated 2021).

What was measured:
[1] = biological target: HIS-tagged IDO1 protein (Homo sapiens (Human), UniProt P14902); test: IDO1 Enzyme Assay; assay type: biochemical; settings: recombinant IDO1 40 nM, tryptophan substrate, fluorescence readout
Procedure: Biological Assays IDO1 Enzyme Assay
(§1) Compounds to be tested were serially diluted in ten 3-fold steps in DMSO starting from 10 mM DMSO stocks. Compound dilutions or DMSO alone were then dispensed from the dilution plate into a Greiner black 384-well assay plate (catalog #781086) using an Echo 555 acoustic liquid handler (Labcyte).
HIS-tagged IDO1 protein was recombinantly expressed in Escherichia coli using ZYP5052 autoinduction media supplemented with 500 μM delta aminolevulinic acid for 48 hours at 16 degrees Celsius. IDO1 protein was purified using Ni^2+-affinity resin and size exclusion chromatography. Purified protein was then diluted in assay buffer (50 mM Tris pH 7.0, 1% glycerol, 20 μM methylene blue, 0.05% Tween-20, 20 mM sodium ascorbate, 100 units/mL catalase to obtain a final IDO1 concentration of 40 nM. IDO1 solution […] or buffer alone […] was dispensed to wells of the assay plate using a BioRAPTR liquid dispenser (Beckman Coulter). Assay plates containing compound and IDO1 enzyme were incubated at room temperature for 30 minutes. Afterwards, 10 μL of 400 μM tryptophan in assay buffer were added to each well of the assay plate using a BioRAPTR liquid dispenser. Plates were incubated at room temperature for 60 minutes and reactions were quenched by addition of 10 μL of 0.5 M methyl isonipecotate in dimethyl sulfoxide. Plates were sealed and incubated at 37 degrees Celsius for 4 hours or 50 degrees Celsius for 2 hours. The plates are allowed to cool and then centrifuged for 1 minute at 1000×g. The resulting fluorescence was measured in an Envision plate reader (Perkin Elmer) with a 400/25 nm excitation filter and an 510/20 nm emission filter.
Potencies were calculated by linear least squares fit to the four parameter logistic IC50 equation.

[2] = biological target: IDO1 in Hela cells stimulated with IFNγ (Homo sapiens (Human), UniProt P14902); test: IDO1 Cellular Assay in Hela Cells Stimulated with IFNγ; assay type: cell-based; settings: IFNγ 100 ng/mL, about 48 hours, fluorescence readout, read-out: IDO1 HELA Cell Assay, IC50
Sequence of IDO1 in Hela cells stimulated with IFNγ (P14902 whole entry): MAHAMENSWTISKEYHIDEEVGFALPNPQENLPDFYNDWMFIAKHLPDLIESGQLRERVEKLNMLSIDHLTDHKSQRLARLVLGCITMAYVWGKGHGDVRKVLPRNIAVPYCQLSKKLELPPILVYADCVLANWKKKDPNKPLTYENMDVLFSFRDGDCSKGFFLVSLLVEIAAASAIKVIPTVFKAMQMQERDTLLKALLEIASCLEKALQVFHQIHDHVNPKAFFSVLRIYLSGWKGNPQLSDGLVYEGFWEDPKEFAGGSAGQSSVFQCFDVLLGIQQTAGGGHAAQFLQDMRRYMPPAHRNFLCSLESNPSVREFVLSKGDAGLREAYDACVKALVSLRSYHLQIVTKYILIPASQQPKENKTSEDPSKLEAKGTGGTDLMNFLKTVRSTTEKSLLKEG
Procedure: IDO1 Cellular Assay in Hela Cells Stimulated with IFNγ
Hela cells were cultured in complete Hela culture medium (90% EMEM, 10% heat-inactivated fetal bovine serum) and expanded to about 1×10^9 cells. The cells were then collected and frozen down at 10×10^6 cells/vial in 1 mL frozen medium (90% complete Hela culture medium, 10% DMSO)
as §1, with “stocks in Echo low volume plate(s).” for “stocks.”, “plate(s)” for “plate”, “into” for “into a”, “#781086, 50 nL/well)” for “#781086)”, “550” for “555”
Frozen Hela cells were thawed and transferred into Hela assay medium (99% complete Hela culture medium, 1% Pen/Strep) with 20 mL medium/vial of cells. The cells were spun down at 250 g in a table top centrifuge for 5 min and suspended in same volume of Hela assay medium. The cells were then counted and adjusted to a density of 2×10^5 cells/ml in Hela assay medium. Sterile L-tryptophan were added to the cells with final concentration of 300 uM L-tryptophan. A small aliquot (2 mL/plate) of Hela cells were set aside and were not treated with IFNγ, to serve as the Max-E control. The rest of Hela cells were added with sterile IFNγ (Cat #285-IF, R & D systems) with a final concentration of 100 ng/mL.
Hela cells with and without IFNγ were dispensed to the respective wells of 384-well assay plates containing the compounds. The plates were incubated for about 48 hours at a 37° C., 5% CO2 incubator. Afterwards, 12 μL of 0.5 M methyl isonipecotate in dimethyl sulfoxide were added into each well and the plates were sealed and incubated at 37° C. without CO2 overnight. The plates were centrifuged for 1 min at 200×g. The resulting fluorescence was measured in a Spectramax plate reader (Molecular Devices) with a 400 nm excitation filter and a 510 nm emission filter.
The fluorescence intensity of each well was corrected for the background observed in wells with non-IFNγ-treated cells and was expressed as a fraction of the intensity observed in wells of IFNγ-treated cells and DMSO only. Potencies were calculated by linear least squares fit to the four parameter logistic IC50 equation.

Sequence of HIS-tagged IDO1 protein (P14902 whole entry): as above

Row | IC50 [1] | IC50 [2] | Structure (SMILES)
1 | 1.07 µM | 1.34 µM | CC(=O)N[C@H](CO)COc1nonc1/C(=N/O)N[C@H]1Cc2ccc(F)cc21 [Example 51, N-{(2R)-1-[(4-{N-[(7S)-4-fluorobicyclo[4.2.0]octa-1,3,5-trien-7-yl]-N′-hydroxycarbamimidoyl}-1,2,5-oxadiazol-3-yl)oxy]-3-hydroxypropan-2-yl}acetamide]
2 | 0.167 µM | 0.28 µM | O=C(N[C@H]1C[C@@H](Oc2nonc2/C(=N/O)N[C@H]2Cc3ccc(F)cc32)C1)C1(O)CC1 [Example 65, N-((1R,3s)-3-((4-((Z)-N-((S)-4-fluorobicyclo[4.2.0]octa-1(6),2,4-trien-7-yl)-N′-hydroxycarbamimidoyl)-1,2,5-oxadiazol-3-yl)oxy)cyclobutyl)-1-hydroxycyclopropanecarboxamide]
3 | 0.037 µM | 0.066 µM | NS(=O)(=O)NCCCOc1nonc1/C(=N/O)N[C@H]1Cc2ccc(F)cc21 [Example 64, (S,Z)-N-(4-fluorobicyclo[4.2.0]octa-1(6),2,4-trien-7-yl)-N′-hydroxy-4-(3-(sulfamoylamino)propoxy)-1,2,5-oxadiazole-3-carboximidamide]
4 | 0.866 µM | 1.31 µM | O=C(COc1nonc1/C(=N/O)N[C@H]1Cc2ccc(F)cc21)N1CC[C@@H](O)C1 [Example 44, N-[(7S)-4-fluorobicyclo[4.2.0]octa-1,3,5-trien-7-yl]-N′-hydroxy-4-{2-[(3R)-3-hydroxypyrrolidin-1-yl]-2-oxoethoxy}-1,2,5-oxadiazole-3-carboximidamide]
5 | 0.0731 µM | 0.147 µM | NS(=O)(=O)CCCOc1nonc1/C(=N/O)N[C@H]1Cc2ccc(F)cc21 [Example 29, N-[(7S)-4-fluorobicyclo[4.2.0]octa-1,3,5-trien-7-yl]-N′-hydroxy-4-(3-sulfamoylpropoxy)-1,2,5-oxadiazole-3-carboximidamide]
6 | 0.421 µM | 1.3 µM | NS(=O)(=O)NCCOc1nonc1/C(=N/O)N[C@H]1CCc2ccc(F)cc21 [Example 24, N-[(1S)-6-fluoro-2,3-dihydro-1H-inden-1-yl]-N′-hydroxy-4-[2-(sulfamoylamino)ethoxy]-1,2,5-oxadiazole-3-carboximidamide]
7 | 0.186 µM | 0.221 µM | NC(=O)COc1nonc1/C(=N/O)N[C@H]1Cc2ccc(F)cc21 [Example 17, 2-[(4-{N-[(7S)-4-fluorobicyclo[4.2.0]octa-1,3,5-trien-7-yl]-N′-hydroxycarbamimidoyl}-1,2,5-oxadiazol-3-yl)oxy]acetamide]
8 | 0.396 µM | 0.561 µM | O/N=C(\N[C@H]1Cc2ccc(F)cc21)c1nonc1OCCn1cnnc1 [Example 28, N-[(7S)-4-fluorobicyclo[4.2.0]octa-1,3,5-trien-7-yl]-N′-hydroxy-4-[2-(4H-1,2,4-triazol-4-yl)ethoxy]-1,2,5-oxadiazole-3-carboximidamide]
9 | 1.55 µM | 0.848 µM | C[C@@H](CNS(N)(=O)=O)Oc1nonc1/C(=N/O)N[C@H]1Cc2ccc(F)cc21 [Example 67, (Z)-N-((S)-4-fluorobicyclo[4.2.0]octa-1(6),2,4-trien-7-yl)-N′-hydroxy-4-(((S)-1-(sulfamoylamino)propan-2-yl)oxy)-1,2,5-oxadiazole-3-carboximidamide]
10 | 1.39 µM | 1.44 µM | O=C(CO)N1CC[C@@H](Oc2nonc2/C(=N/O)N[C@H]2Cc3ccc(F)cc32)C1 [Example 60, N-[(7S)-4-fluorobicyclo[4.2.0]octa-1,3,5-trien-7-yl]-N′-hydroxy-4-{[(3R)-1-(hydroxyacetyl)pyrrolidin-3-yl]oxy}-1,2,5-oxadiazole-3-carboximidamide]
11 | 1.48 µM | 1.33 µM | CS(=O)(=O)CCOc1nonc1/C(=N/O)N[C@H]1Cc2ccc(F)cc21 [Example 27, N-[(7S)-4-fluorobicyclo[4.2.0]octa-1,3,5-trien-7-yl]-N′-hydroxy-4-[2-(methylsulfonyl)ethoxy]-1,2,5-oxadiazole-3-carboximidamide]
12 | 0.0834 µM | 0.0913 µM | CC(=O)N[C@H]1C[C@H](Oc2nonc2/C(=N/O)N[C@H]2Cc3ccc(F)cc32)C1 [Example 37, N-{trans-3-[(4-{N-[(7S)-4-fluorobicyclo[4.2.0]octa-1,3,5-trien-7-yl]-N′-hydroxycarbamimidoyl}-1,2,5-oxadiazol-3-yl)oxy]cyclobutyl}acetamide]
13 | 0.0747 µM | 0.301 µM | NC(=O)NCCCOc1nonc1/C(=N/O)N[C@H]1Cc2ccc(F)cc21 [Example 18, 4-[3-(carbamoylamino)propoxy]-N-[(7S)-4-fluorobicyclo[4.2.0]octa-1,3,5-trien-7-yl]-N′-hydroxy-1,2,5-oxadiazole-3-carboximidamide]
14 | 0.167 µM | 0.287 µM | CC(C)(O)C(=O)N[C@H]1C[C@@H](Oc2nonc2/C(=N/O)N[C@H]2Cc3ccc(F)cc32)C1 [Example 66, N-((1R,3s)-3-((4-((Z)-N-((S)-4-fluorobicyclo[4.2.0]octa-1(6),2,4-trien-7-yl)-N′-hydroxycarbamimidoyl)-1,2,5-oxadiazol-3-yl)oxy)cyclobutyl)-2-hydroxy-2-methylpropanamide]
15 | 0.02 µM | 0.036 µM | NC(=O)N1CC(Oc2nonc2/C(=N/O)N[C@H]2Cc3ccc(F)cc32)C1 [Example 63, (S,Z)-3-((4-(N-(4-fluorobicyclo[4.2.0]octa-1(6),2,4-trien-7-yl)-N′-hydroxycarbamimidoyl)-1,2,5-oxadiazol-3-yl)oxy)azetidine-1-carboxamide]
16 | 0.447 µM | 0.509 µM | O=C(COc1nonc1/C(=N/O)N[C@H]1Cc2ccc(F)cc21)NC[C@@H](O)CO [Example 16, N-[(2R)-2,3-dihydroxypropyl]-2-[(4-{N-[(7S)-4-fluorobicyclo[4.2.0]octa-1,3,5-trien-7-yl]-N′-hydroxycarbamimidoyl}-1,2,5-oxadiazol-3-yl)oxy]acetamide]
17 | 1.49 µM | 1.34 µM | O=C(CO)N1CCC[C@@H]1COc1nonc1/C(=N/O)N[C@H]1Cc2ccc(F)cc21 [Example 58, N-[(7S)-4-fluorobicyclo[4.2.0]octa-1,3,5-trien-7-yl]-N′-hydroxy-4-{[(2R)-1-(hydroxyacetyl)pyrrolidin-2-yl]methoxy}-1,2,5-oxadiazole-3-carboximidamide]
18 | 0.141 µM | 0.181 µM | COC(=O)NCCOc1nonc1/C(=N/O)N[C@H]1Cc2ccc(F)cc21 [Example 41, methyl {2-[(4-{N-[(7S)-4-fluorobicyclo[4.2.0]octa-1,3,5-trien-7-yl]-N′-hydroxycarbamimidoyl}-1,2,5-oxadiazol-3-yl)oxy]ethyl}carbamate]
19 | 0.483 µM | 0.774 µM | O=C(COc1nonc1/C(=N/O)N[C@H]1CCc2ccc(F)cc21)NCCO [Example 13, 2-[(4-{N-[(1S)-6-fluoro-2,3-dihydro-1H-inden-1-yl]-N′-hydroxycarbamimidoyl}-1,2,5-oxadiazol-3-yl)oxy]-N-(2-hydroxyethyl)acetamide]
20 | 0.334 µM | 0.446 µM | CC(=O)NC(CO)COc1nonc1/C(=N/O)N[C@H]1Cc2ccc(F)cc21 (stereo partly drawn) [Example 39, N-{1-[(4-{N-[(7S)-4-fluorobicyclo[4.2.0]octa-1,3,5-trien-7-yl]-N′-hydroxycarbamimidoyl}-1,2,5-oxadiazol-3-yl)oxy]-3-hydroxypropan-2-yl}acetamide]
